Patent publication US20210052516A1, “METHOD FOR INCREASING AKKERMANSIA IN INTESTINAL BACTERIAL FLORA BY INGESTING ASTAXANTHIN” (Fuji Chemical Industries Co., Ltd., priority 2018, published 2021)

Legend:
[1] = system: Akkermansia muciniphila; settings: articles reported so far; mice; cited from earlier work
[2] = system: bacteria of the genus Akkermansia (Akkermansia muciniphila); assay: Intestinal bacterial flora in cecum contents, 16S rRNA sequencing: Akkermansia; type: in vivo; settings: diet containing 0.02% astaxanthin for four weeks vs normal diet, 6-week-old Wistar rats
From the text: Thus, as detailed below, 6-week-old Wistar rats (rodents) were used to compare the intestinal bacterial floras of a group fed with an astaxanthin-containing diet for four weeks and a group fed with a normal diet for four weeks. […] Six-week-old Wistar rats (rodents) were used to compare the intestinal bacterial flora of a group fed with a diet containing 0.02% astaxanthin (an Asx group) and the intestinal bacterial flora of a group fed with a normal diet (a control group). Saline or corticotropin-releasing hormone (CRH) was intravenously administered to the rats after feeding each group with each corresponding diet for four weeks. Three hours after administration, the rats were sacrificed and the intestinal bacterial floras in the cecum contents of each group were analyzed and compared. […] The analysis method included extracting DNA in the cecum contents, amplifying the V3-V4 region in a 16SrRNA gene, and performing sequencing.

[3] = Body weight of a rodent; type: in vivo; settings: diet containing 0.02% astaxanthin vs normal diet; 24-day-old Wistar rats; PND72,76
From the text: Twenty four-day-old Wistar rats (rodents) were used to compare the body weights of a group fed with a diet containing 0.02% astaxanthin (an Asx group) and the body weights of a group fed with a normal diet (a control group).

[4] = system: Lactobacillus; assay: Intestinal bacterial flora in cecum contents, 16S rRNA sequencing: Lactobacillus; type: in vivo, Wistar rats; settings: diet containing 0.02% astaxanthin for four weeks, control group 10.9%
From the text: (§1) Six-week-old Wistar rats (rodents) were used to compare the intestinal bacterial flora of a group fed with a diet containing 0.02% astaxanthin (an Asx group) and the intestinal bacterial flora of a group fed with a normal diet (a control group).
(§2) Saline or corticotropin-releasing hormone (CRH) was intravenously administered to the rats after feeding each group with each corresponding diet for four weeks.
(§3) Three hours after administration, the rats were sacrificed and the intestinal bacterial floras in the cecum contents of each group were analyzed and compared. The result is shown in the graph of FIG. 1.
(§4) The analysis method included extracting DNA in the cecum contents, amplifying the V3-V4 region in a 16SrRNA gene, and performing sequencing.

[5] = Astaxanthin concentration in human blood (HPLC); type: in vivo; settings: 1 to 60 mg of astaxanthin per day
Experimental: Next, an astaxanthin concentration in human blood was investigated.
In this context, a blood astaxanthin concentration means an astaxanthin concentration in blood serum or blood plasma.
A blood astaxanthin concentration was measured by HPLC.
Five hundred microliters of 50 μg/ml butylhydroxytoluene in ethanol, 100 μl of 100 ng/ml internal standard (ethyl 8′-apo-beta-caroten-8′-oate, Carote Nature, 1010) in acetone, and 500 μl of distilled water were added to 100 μl of the obtained blood serum or blood plasma sample, and the mixture was stirred vigorously for 15 seconds by a vortex mixer.
Furthermore, 5 ml of hexane was added to the blood serum or blood plasma, and subsequently the mixture was stirred vigorously for 15 seconds by the vortex mixer three times and centrifuged at 3500 rpm for 10 minutes.
Four milliliters of the supernatant after centrifugation was collected and filtrated through a membrane filter with a mesh size of 0.45 μm. […]
In parallel, a standard solution was prepared by adding 1 ml of 10 μg/ml internal standard (ethyl 8′-apo-beta-caroten-8′-oate) in acetone to 100 ml of 100 ng/ml astaxanthin (astaxanthin, ALEXIS BIOCHEMICALS, 460-031-M250) in acetone, and was also subjected to reverse-phase HPLC. The blood astaxanthin concentration was calculated based on the peak area ratio of the above-mentioned two solutions obtained by HPLC. […]

[6] = in vivo; cited from earlier work
[7] = system: Clostridia; assay: Intestinal bacterial flora in cecum contents, 16S rRNA sequencing: Clostridia; type: in vivo, Wistar rats; settings: diet containing 0.02% astaxanthin for four weeks, control group 58.2%
From the text: as §1, §2, §3, §4

[8] = system: intestinal peristaltic movement induced by CRH; assay: Intestinal peristaltic movement induced by CRH administration; type: in vivo, Wistar rats; settings: diet containing 0.02% astaxanthin for four weeks; CRH intravenously
From the text: as §1, §2
Furthermore, enhancement of intestinal peristaltic movement induced by administration of CRH was reduced in the Asx group.

[9] = Change in astaxanthin concentration in human blood on long-term ingestion; type: in vivo; settings: 12 mg/day astaxanthin in free form (two capsules of Haematococcus alga extract) for 42 days
Experimental: Next, a test on humans was performed to monitor how an astaxanthin concentration in blood (in blood plasma) changed when astaxanthin was ingested for a long period. A study was performed as follows:
Ten healthy Japanese males and females aged 20 years or older and younger than 50 years
The subjects ingested two capsules per day (equivalent to 12 mg/day astaxanthin in free form) together with water 30 minutes after breakfast for 42 days, with one capsule containing 60 mg of Haematococcus alga extract (equivalent to 6 mg of astaxanthin in free form) and 270 mg of edible oil and fat.
Blood collection was performed 1, 6, 13, 20, 27, 34, and 42 days after the first ingestion of the capsules to obtain blood plasma. The blood astaxanthin concentration was measured by the above-mentioned analytical method (HPLC).

COc1cc(CNC(=O)CCCC/C=C/C(C)C)ccc1O [Capsaicin]
effect on Akkermansia muciniphila population [1]: effect of increasing Akkermansia muciniphila

CC1=C(/C=C/C(C)=C/C=C/C(C)=C/C=C/C=C(C)/C=C/C=C(C)/C=C/C2=C(C)C(=O)C(O)CC2(C)C)C(C)(C)CC(O)C1=O (stereo not drawn) [astaxanthin, 3,3′-dihydroxy-β,β-carotene-4,4′-dione]
number of bacteria of the genus Akkermansia in the Asx group relative to the control group [2]: about 11.7 times | increase in body weight [3]: clearly less | proportion of Lactobacillus in the intestinal bacterial flora of the Asx group [4]: 5.9% | blood astaxanthin concentration (serum or plasma), range [5]: no more than 600 ng/ml | absorption percentage in the intestine [6]: about 5% | proportion of Clostridia in the intestinal bacterial flora of the Asx group [7]: 47.6% | enhancement of intestinal peristaltic movement induced by administration of CRH [8]: reduced | astaxanthin concentration in human blood plasma at plateau [9]: around 200 ng/ml | time after beginning of ingestion at which blood plasma concentration started to plateau [9]: about 6 days
